US10154958B1 (King Abdulaziz University, priority 2017, dated 2018)
Marks after values point to notes of the source that are not given here.

Assays:
Gardnerella vaginalis = assay: Disc diffusion susceptibility of Gardnerella vaginalis isolates; assay type: cell-based; conditions: of the 20 isolates of Gardnerella vaginalis; reference disc 5 mcg/disc
Protocol: Twenty isolates of each of Gardnerella vaginalis and Candida albicans were collected from human vaginosis cases. […] The disc diffusion method was used. For Gardnerella vaginalis, the Mueller-Hinton agar supplemented with 5% human serum medium was used.
The discs were incubated aerobically for 48 hrs at 35° C., the diameter of the discs inhibition zones were measured in millimeter, and interpreted by using the chart provided by Hudzicki, American Society for Microbiology, www.asm.org.2013, incorporated herein by reference in its entirety.

Trichomonas vaginalis = assay: In vitro susceptibility of Trichomonas vaginalis isolates (flagellar motility); assay type: cell-based; conditions: 37° C.; for Mean % cells with motility after 48 hrs of aerobic contact: 500 cells/100 μL + 100 μL composition or metranidazole 25 μg/ml
Protocol: Fresh isolates of Trichomonas vaginalis were collected from 30-38 years old women. The procedure of vaginal smearing and reconstituting medium of the collected specimens were performed according to the procedure in Meingassner and Thumer, Antimicrobial agents and Chemotherapy, Vol 15, pp 254-257,1979, incorporated herein by reference in its entirety. Each isolate was adjusted to a viable count of 5,000 cells/ml, using a hemocytometer. A reconstituting diluent, Diamond's TYM supplemented with 10% horse serum, was used. The isolates were tested with the composition and a commonly used drug, metranidazole.
The number of cells in each well was 500 cells/100 μL of medium. […] Metranidazole was included as a reference at a concentration of 25 μg/ml. Metranidazole (100 μL) was also kept in contact with 500 cells/100 μL of the 20 isolates of Trichomonas vaginalis in the presence of oxygen for 48 hours at 37° C. Control triplicate wells were included in which the Trichomonas vaginalis cells of each of the 20 isolates were put in contact with equal volume of Diamond's TYM supplemented with 10% horse serum. The motility of flagella of the cells was observed after 48 hrs under an inverted-phase contrast microscope. The percentage of cells losing flagellar motility was determined.

Cc1ncc([N+](=O)[O-])n1CCO [Metranidazole, metranidazole]
number of isolates resistant to the reference disc (Gardnerella vaginalis): one
Mean % cells with motility after 48 hrs of aerobic contact (Trichomonas vaginalis; isolate 1): 4.0%
Mean % cells with motility after 48 hrs of aerobic contact (Trichomonas vaginalis; isolate 2): 0.0%
Mean % cells with motility after 48 hrs of aerobic contact (Trichomonas vaginalis; isolate 3): 1.5%
Mean % cells with motility after 48 hrs of aerobic contact (Trichomonas vaginalis; isolate 4): 5.4%
Mean % cells with motility after 48 hrs of aerobic contact (Trichomonas vaginalis; isolate 5): 7.4%
Mean % cells with motility after 48 hrs of aerobic contact (Trichomonas vaginalis; isolate 6): 0.0%
Mean % cells with motility after 48 hrs of aerobic contact (Trichomonas vaginalis; isolate 7): 9.3%
Mean % cells with motility after 48 hrs of aerobic contact (Trichomonas vaginalis; isolate 8): 5.6%
Mean % cells with motility after 48 hrs of aerobic contact (Trichomonas vaginalis; isolate 9): 8.4%
Mean % cells with motility after 48 hrs of aerobic contact (Trichomonas vaginalis; isolate 10): 10.4%
Mean % cells with motility after 48 hrs of aerobic contact (Trichomonas vaginalis; isolate 11): 0.0%
Mean % cells with motility after 48 hrs of aerobic contact (Trichomonas vaginalis; isolate 12): 4.2%
Mean % cells with motility after 48 hrs of aerobic contact (Trichomonas vaginalis; isolate 13): 0.0%
Mean % cells with motility after 48 hrs of aerobic contact (Trichomonas vaginalis; isolate 14): 6.7%
Mean % cells with motility after 48 hrs of aerobic contact (Trichomonas vaginalis; isolate 15): 8.5%
Mean % cells with motility after 48 hrs of aerobic contact (Trichomonas vaginalis; isolate 16): 11.4%
Mean % cells with motility after 48 hrs of aerobic contact (Trichomonas vaginalis; isolate 17): 7.4%
Mean % cells with motility after 48 hrs of aerobic contact (Trichomonas vaginalis; isolate 18): 8.2%
Mean % cells with motility after 48 hrs of aerobic contact (Trichomonas vaginalis; isolate 19): 9.7%
Mean % cells with motility after 48 hrs of aerobic contact (Trichomonas vaginalis; isolate 20): 1.2%
Mean % cells with motility after 48 hrs of aerobic contact, Mean of Means (Trichomonas vaginalis; mean of means of the 20 isolates, composition or metranidazole 25 μg/ml): 5.5^a %
